This passage reports EC50 results from patent US20210163471A1, “PROGRANULIN MODULATORS AND METHODS OF USING THE SAME” (ARKUDA THERAPEUTICS, priority 2017, published 2021).

SMILES strings stand for the structures. Read-outs that look alike come from different tables or passages of the source. Where only a bound is given, the exact number is not on record here.

In this experiment the test system is BV-2 (mouse microglia) cells. In words: progranulin secretion from BV-2 cells, mouse progranulin ELISA of conditioned media. It is filed as cell-based. To be noted: Mus musculus, BV-2 cells, 16 hours incubation, 8-point curves starting at 10 μM. The protocol:
BV-2 cells are split the day before plating into a 96 well plate format at approximately 80%. Cells should be plated the day before and allowed for 1 hour attachment period and for 16 hour incubation. […] Standard ELISA kits to measure PGRN are available from vendors such as Adipogen, R&D, and Biovendor.
Compound potency was determined by measuring progranulin secretion from BV-2 (mouse microglia) cells. BV-2 cells were grown in RPMI with 2 mM L-glutamine supplemented with 10% fetal bovine serum. On the day of the assay, cells were plated in 96-well plates at a density of 30,000 cells/well in RPMI (Roswell Park Memorial Institute media)/L-glutamine supplemented with 2% Fetal clone serum II (plating media) and left to adhere for 1 hour. Following attachment to the plate, media was replaced with treatment (8-point curves in half-log dilutions starting at 10 μM) in plating media and incubated for 16 hours. Secreted progranulin was measured from a 1:10 dilution of the conditioned media using the R&D Systems mouse progranulin ELISA kit (cat #DY2557) and following the manufacturer's instructions.
A general note: In an ELISA, binding on a coated surface is turned into a signal by an enzyme label.

[1] abbreviates: assay run v2 (same protocol, different assay), read-out: PRGN v2 (EC50, progranulin secretion).
Setting [2] is: assay run v1, read-out: PRGN v1 (EC50, progranulin secretion).
Where [3] appears, read: BV-2, 16 h, assay run v1, read-out: PRGN v1 (EC50, progranulin secretion).
[4] abbreviates: BV-2, 16 h, assay run v2 (same protocol, different assay), read-out: PRGN v2 (EC50, progranulin secretion).

By EC50 is commonly meant the concentration giving half of the maximal effect. Take `O=C(O[C@@H]1CN2CCC1CC2)N1CCc2ccccc2[C@@H]1c1ccc(-n2cnnc2)cc1` [Compound 1042]: the EC50 under setting [1] was greater than 10 µM.
As to `O=C(O[C@@H]1CN2CCC1CC2)N1CCc2ccccc2[C@H]1c1ccc(-n2cnnc2)cc1` [Compound 1043], under setting [1], the 50% effective concentration (EC50) is greater than 10 µM.
In the case of `O=C(O[C@@H]1CN2CCC1CC2)N1Cc2ccccc2[C@@H]1c1ccccc1` [Compound 1044], the EC50 under setting [1] is greater than 10 µM.
On to `O=C(O[C@@H]1CN2CCC1CC2)N1Cc2ccccc2[C@H]1c1ccccc1` [Compound 1045], for which the EC50 under setting [1] was greater than 10 µM.
In the case of `O=C(O[C@@H]1CN2CCC1CC2)N1CCc2ccccc2[C@@H]1c1ccc(Cl)cc1` [Compound 1046], under setting [2], the EC50 was found to be 0.34 µM.
For `O=C(N[C@@H]1CN2CCC1CC2)N1CCc2ccccc2[C@@H]1c1ccccc1` [Compound 1047], the EC50 under setting [3] was determined as 0.7 µM.
With `O=C(C[C@@H]1CN2CCC1CC2)N1CCc2ccccc2[C@@H]1c1ccccc1` [Compound 1048], the 50% effective concentration (EC50) under setting [3] amounted to 0.88 µM.
Regarding `O=C(C[C@@H]1CN2CCC1CC2)N1CCc2ccccc2[C@@H]1c1ccc(Cl)cc1` [Compound 1049], the 50% effective concentration (EC50) under setting [3] was determined as 0.21 µM.
On the same count and under the same terms, under `CC1(C)[C@@H](NC(=O)N2CCc3ccccc3[C@@H]2c2ccc(Cl)cc2)C2CCN1CC2` [Compound 1050] stands 0.36 µM; under `O=C(C[C@H]1CN2CCC1CC2)N1CCc2ccccc2[C@@H]1c1ccccc1` [Compound 1051], 1.37 µM.
In the case of `CS(=O)(=O)c1ccc([C@H]2c3ccccc3CCN2C(=O)C[C@@H]2CN3CCC2CC3)cc1` [Compound 1052], the concentration giving a half-maximal response (EC50) under setting [3] was greater than 10 µM.
For the compound `O=C(C[C@@H]1CN2CCC1CC2)N1CCc2ccccc2[C@@H]1c1ccc(F)cc1F` [Compound 1053], the concentration giving a half-maximal response (EC50) under setting [3] is 0.96 µM.
Turning to `O=C(C[C@@H]1CN2CCC1CC2)N1CCc2ccccc2[C@@H]1c1ccc(-n2cncn2)cc1` [Compound 1054], the half-maximal effective concentration (EC50) under setting [3] is greater than 10 µM.
Consider `O=C(C[C@@H]1CN2CCC1CC2)N1CCc2ccccc2[C@H]1c1ccc(-n2cncn2)cc1` [Compound 1055], for which, under setting [3], the EC50 is greater than 10 µM.
Regarding `COc1ccc([C@H]2c3ccccc3CCN2C(=O)C[C@@H]2CN3CCC2CC3)cc1` [Compound 1056], under setting [3], the EC50 worked out at 3.72 µM.
As for `COc1ccc([C@@H]2c3ccccc3CCN2C(=O)C[C@@H]2CN3CCC2CC3)cc1` [Compound 1057], the concentration for a half-maximal effect (EC50) under setting [3] worked out at 4.2 µM.
For `O=C(C[C@@H]1CN2CCC1CC2)N1CCc2ccccc2[C@@H]1c1ccc(F)cc1` [Compound 1058], the concentration for a half-maximal effect (EC50) under setting [2] was found to be 0.22 µM.
In the case of `O=C(C[C@@H]1CN2CCC1CC2)N1CCc2ccccc2[C@H]1c1ccc(F)cc1` [Compound 1059], the EC50 under setting [2] was greater than 10 µM.
With `COc1ccc([C@H]2c3ccccc3CCN2C(=O)C[C@@H]2CN3CCC2CC3)cc1F` [Compound 1060], the concentration giving a half-maximal response (EC50) under setting [3] was greater than 10 µM and the EC50 under setting [4] worked out at 2.07 µM.
Turning to `COc1ccc([C@@H]2c3ccccc3CCN2C(=O)C[C@@H]2CN3CCC2CC3)cc1F` [Compound 1061], the EC50 by setting is: under setting [3], greater than 10 µM; under setting [4], greater than 10 µM.
`O=C(C[C@@H]1CN2CCC1CC2)N1CCc2ccccc2[C@@H]1c1cccc(F)c1` [Compound 1062]: the EC50 under setting [3] is 1.1 µM and the concentration for a half-maximal effect (EC50) under setting [4] was greater than 6.1 µM.
Consider `O=C(C[C@@H]1CN2CCC1CC2)N1CCc2ccccc2[C@H]1c1cccc(F)c1` [Compound 1063], for which the 50% effective concentration (EC50) reads like this: under setting [3], greater than 10 µM; under setting [4], greater than 10 µM.
As to `O=C(C[C@@H]1CN2CCC1CC2)N1CCc2ccccc2[C@@H]1c1ccc(F)c(F)c1` [Compound 1064], the EC50 was 2.71 µM under setting [3] and 1.83 µM under setting [4].
With `O=C(C[C@@H]1CN2CCC1CC2)N1CCc2ccccc2[C@H]1c1ccc(F)c(F)c1` [Compound 1065], the EC50 was greater than 10 µM under setting [3] and greater than 10 µM under setting [4].
With `O=C1CCCN1c1ccc([C@H]2c3ccccc3CCN2C(=O)C[C@@H]2CN3CCC2CC3)cc1` [Compound 1066], the EC50 is greater than 10 µM under setting [3] and greater than 10 µM under setting [4].
Regarding `O=C1CCCN1c1ccc([C@@H]2c3ccccc3CCN2C(=O)C[C@@H]2CN3CCC2CC3)cc1` [Compound 1067], the EC50 is greater than 10 µM under setting [3] and greater than 10 µM under setting [4].
